target: biotinylated Avi-POLθ[2-894] (Homo sapiens (Human), UniProt O75417); experiment: POLθ ATPase assay (ADP-Glo); details: POLθ ATPase, ADP-Glo; n=2; read-out: Biochemical ATPase ADPGlo IC50
Sequence (O75417 2-894): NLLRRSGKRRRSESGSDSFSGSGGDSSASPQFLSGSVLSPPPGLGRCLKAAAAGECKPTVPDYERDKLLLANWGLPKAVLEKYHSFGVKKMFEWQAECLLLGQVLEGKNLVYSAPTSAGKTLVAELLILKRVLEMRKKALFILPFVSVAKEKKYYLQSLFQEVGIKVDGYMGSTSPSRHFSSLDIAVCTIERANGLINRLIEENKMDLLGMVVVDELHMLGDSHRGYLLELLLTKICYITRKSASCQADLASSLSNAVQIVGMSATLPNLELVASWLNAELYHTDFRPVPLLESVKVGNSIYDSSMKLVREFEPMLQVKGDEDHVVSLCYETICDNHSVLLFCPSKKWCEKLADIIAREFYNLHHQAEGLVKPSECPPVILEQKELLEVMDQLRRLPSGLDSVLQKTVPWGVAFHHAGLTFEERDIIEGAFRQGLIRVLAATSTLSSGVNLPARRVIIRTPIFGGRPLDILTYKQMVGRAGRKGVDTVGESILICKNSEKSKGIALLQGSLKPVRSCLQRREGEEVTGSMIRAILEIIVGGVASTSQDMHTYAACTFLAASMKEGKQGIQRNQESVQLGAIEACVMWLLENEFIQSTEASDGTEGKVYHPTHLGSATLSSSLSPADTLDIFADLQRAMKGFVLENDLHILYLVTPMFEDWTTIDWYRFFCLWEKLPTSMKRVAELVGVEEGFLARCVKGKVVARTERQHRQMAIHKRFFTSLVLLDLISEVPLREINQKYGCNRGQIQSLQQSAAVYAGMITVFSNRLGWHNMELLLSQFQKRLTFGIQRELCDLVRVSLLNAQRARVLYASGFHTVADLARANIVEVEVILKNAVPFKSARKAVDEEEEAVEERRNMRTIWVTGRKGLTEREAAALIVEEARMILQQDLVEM

Molecule | IC50 [nM]
COc1nc(C(F)(F)F)ccc1C(=O)N1Cc2nc(NC(=O)c3cnc(C)cc3-c3cc(Cl)c[nH]c3=O)sc2C1 [Example 1045, 5-chloro-N-(5-(2-methoxy-6-(trifluoromethyl)nicotinoyl)-5,6-dihydro-4H-pyrrolo[3,4-d]thiazol-2-yl)-6′-methyl-2-oxo-1,2-dihydro-[3,4′-bipyridine]-3′-carboxamide] | ≥ 900
COc1cnc(Cl)cc1-c1cc(C)ncc1C(=O)Nc1nc2c(s1)C(C)N(C(=O)c1ccc(C(F)(F)F)nc1OC)C2 (single isomer, unassigned) [Example 1047, (S or R)-2′-chloro-5′-methoxy-N-(5-(2-methoxy-6-(trifluoromethyl)nicotinoyl)-6-methyl-5,6-dihydro-4H-pyrrolo[3,4-d]thiazol-2-yl)-6-methyl-[4,4′-bipyridine]-3-carboxamide] | 150 to 900

The next lines start with the values.

IC50 [nM] | Molecule
1 to 15 | COc1cnc(Cl)cc1-c1cc(C)ncc1C(=O)Nc1nc2c(s1)CN(C(=O)c1cnc(OC(F)F)cn1)C2
1 to 15 | COc1cnc(Cl)cc1-c1cc(C)ncc1C(=O)Nc1nc2c(s1)CN(C(=O)[C@@H]1CCC[C@](O)(C(F)(F)F)C1)C2 [Example 761]
1 to 15 | COc1cnc(Cl)cc1-c1cc(C)ncc1C(=O)Nc1nc2c(s1)CN(C(=O)c1ccncn1)C2
1 to 15 | COc1cnc(Cl)cc1-c1cc(C)ncc1C(=O)Nc1nc2c(s1)CN(C(=O)c1cccnc1OC(F)F)C2 [Example 525]
1 to 15 | COc1cnc(Cl)cc1-c1cc(C)ncc1C(=O)Nc1nc2c(s1)CN(C(=O)c1cncc(C(F)(F)F)n1)C2
1 to 15 | COc1cnc(Cl)cc1-c1cc(C)ncc1C(=O)Nc1nc2c(s1)CN(C(=O)[C@@H]1CC[C@](O)(C(F)(F)F)C1)C2 [Example 734, 2′-chloro-N-(5-((1R,3R)-3-hydroxy-3-(trifluoromethyl)cyclopentane-1-carbonyl)-5,6-dihydro-4H-pyrrolo[3,4-d]thiazol-2-yl)-5′-methoxy-6-methyl-[4,4′-bipyridine]-3-carboxamide]

same assay, conditions: n=2; read-out: Biochemical ATPase ADPGlo IC50

Molecule | IC50 [nM]
COc1ccccc1-c1cc(C)ncc1C(=O)Nc1nc2c(s1)C(=O)N(C1CC1)C2 | ≥ 900
COc1ccccc1-c1cc(C)ncc1C(=O)Nc1nc2c(s1)CN(C(=O)C1(O)COC1)C2 | 150 to 900
COc1ccccc1-c1cc(C)ncc1C(=O)Nc1nc2c(s1)CN(C(=O)OC(C)(C)C)CC2 [Example 335] | 150 to 900
COc1ccccc1-c1cc(C)ncc1C(=O)Nc1nc2c(s1)CN(C(=O)C1CC3(COC3)C1)C2 | 50 to 150
COc1ccccc1-c1cc(C)ncc1C(=O)Nc1nc2c(s1)CN(C(=O)C1CCCCC1)CC2 | ≥ 900
COc1cnc(Cl)cc1-c1cc(C)ncc1C(=O)Nc1nc2c(s1)CC(N[C@H]1C[C@@H](O)C1)CC2 (some centres unmarked) [Example 99, 2′-chloro-N-(6-(((1s,3s)-3-hydroxycyclobutyl)amino)-4,5,6,7-tetrahydrobenzo[d]thiazol-2-yl)-5′-methoxy-6-methyl-[4,4′-bipyridine]-3-carboxamide] | ≥ 900
COc1ccccc1-c1cc(C)ncc1C(=O)Nc1nc2c(s1)CN(C(=O)C1CCC(=O)N1)C2 (centres unmarked) | 150 to 900
COc1ccccc1-c1cc(C)ncc1C(=O)Nc1nc2c(s1)CC(c1ccc(Cl)cc1)CC2 (racemic) | 150 to 900
COc1ccccc1-c1cc(C)ncc1C(=O)Nc1nc2c(s1)CCN(C(=O)OC(C)(C)C)C2 | ≥ 900
COc1ccccc1-c1cc(C)ncc1C(=O)Nc1nc2c(s1)CN(C(=O)c1ccncc1)C2 | 50 to 150
COc1ccc(C#N)cc1-c1cc(C)ncc1C(=O)Nc1nc2c(s1)CN(C(=O)C1CCCCO1)CC2 (single isomer, unassigned) [Example 215] | ≥ 900
COc1ccc(C#N)cc1-c1cc(C)ncc1C(=O)Nc1nc2c(s1)CN(C(=O)C1CCC1)CC2 [Example 224] | 150 to 900
COc1ccccc1-c1cc(C)ncc1C(=O)Nc1nc2c(s1)CN(S(=O)(=O)N1CCOCC1)C2 | 15 to 50
COc1ccccc1-c1cc(C)ncc1C(=O)Nc1nc2c(s1)CN(C(=O)C1CCCOC1)C2 (racemic) | 150 to 900
COc1ccccc1-c1cc(C)ncc1C(=O)Nc1nc2c(s1)CN(C(=O)c1cccn(C)c1=O)C2 | 150 to 900
COc1ccc(C#N)cc1-c1cc(C)ncc1C(=O)Nc1nc2c(s1)CN(C(=O)C1CC1OC)CC2 (mixture of isomers) [Example 214, 4-(5-cyano-2-methoxyphenyl)-N-(5-(2-methoxycyclopropane-1-carbonyl)-4,5,6,7-tetrahydrothiazolo[5,4-c]pyridin-2-yl)-6-methylnicotinamide Mixture of isomers] | 150 to 900
COc1ccc(C#N)cc1-c1cc(C)ncc1C(=O)Nc1nc2c(s1)CN(C(=O)[C@@H]1CCCOC1)CC2 [Example 223] | 150 to 900
COc1ccccc1-c1cc(C)ncc1C(=O)Nc1nc2c(s1)CN(C(=O)c1ccn(C)n1)C2 | 50 to 150
COc1ccc(C#N)cc1-c1cc(C)ncc1C(=O)Nc1nc2c(s1)CN(C(=O)[C@H]1C[C@H](OC)C1)C2 [Example 221] | 15 to 50
COc1ccc(C#N)cc1-c1cc(C)ncc1C(=O)Nc1nc2c(s1)CN(C(=O)C1CCOC1)CC2 (centres unmarked) | 150 to 900
N-(5-(1H-pyrazole-5-carbonyl)-5,6- dihydro-4H-pyrrolo[3,4-d]thiazol-2-yl)- 2′-chloro-5′-methoxy-6-methyl-[4,4′- bipyridine]-3-carboxamide [Example 86] | 1 to 15
COc1ccccc1-c1cc(C)ncc1C(=O)Nc1nc2c(s1)CN(C(=O)C1CCC1C#N)C2 (centres unmarked) | 150 to 900
COc1cn2cncc2cc1-c1cc(C)ncc1C(=O)Nc1nc2c(s1)CN(C(=O)[C@H]1C[C@@H](OC(F)(F)F)C1)C2 [Example 97, 4-(6-methoxyimidazo[1,5-a]pyridin-7-yl)-6-methyl-N-(5-((1s,3s)-3-(trifluoromethoxy)cyclobutane-1-carbonyl)-5,6-dihydro-4H-pyrrolo[3,4-d]thiazol-2-yl)nicotinamide] | 1 to 15
COc1ccccc1-c1cc(C)ncc1C(=O)Nc1nc2c(s1)CC(Nc1ccccc1)CC2 (centres unmarked) | 50 to 150
COc1ccccc1-c1cc(C)ncc1C(=O)Nc1nc2c(s1)CN(C(=O)C1CCOCC1)C2 (racemic) | 50 to 150

Further lines, results first:

IC50 [nM] | Molecule
1 to 15 | COc1cnc(Cl)cc1-c1cc(C)ncc1C(=O)Nc1nc2c(s1)CN(C(=O)[C@H]1C[C@@H](O)C1)C2 [Example 185]
1 to 15 | COc1cnc(Cl)cc1-c1cc(C)ncc1C(=O)Nc1nc2c(s1)CN(C(=O)c1ccn(CC(F)F)n1)C2 [Example 51, 2′-chloro-N-(5-(1-(2,2-difluoroethyl)-1H-pyrazole-3-carbonyl)-5,6-dihydro-4H-pyrrolo[3,4-d]thiazol-2-yl)-5′-methoxy-6-methyl-[4,4′-bipyridine]-3-carboxamide]
1 to 15 | COc1cnc(Cl)cc1-c1cc(C)ncc1C(=O)Nc1nc2c(s1)CN(C(=O)c1ccnn1C(F)F)C2 (racemic) [Example 137]
1 to 15 | COc1cnc(Cl)cc1-c1cc(C)ncc1C(=O)Nc1nc2c(s1)CN(C(=O)c1ccnn1CC(F)(F)F)C2 [Example 46, 2′-chloro-5′-methoxy-6-methyl-N-(5-(1-(2,2,2-trifluoroethyl)-1H-pyrazole-5-carbonyl)-5,6-dihydro-4H-pyrrolo[3,4-d]thiazol-2-yl)-[4,4′-bipyridine]-3-carboxamide]
15 to 50 | COc1cnc(Cl)cc1-c1cc(C)ncc1C(=O)Nc1nc2c(s1)CN(C(=O)c1cc(O)n(C)n1)C2 [Example 92, 2′-chloro-N-(5-(5-hydroxy-1-methyl-1H-pyrazole-3-carbonyl)-5,6-dihydro-4H-pyrrolo[3,4-d]thiazol-2-yl)-5′-methoxy-6-methyl-[4,4′-bipyridine]-3-carboxamide]
1 to 15 | COc1cnc(Cl)cc1-c1cc(C)ncc1C(=O)Nc1nc2c(s1)CN(C(=O)c1ccnn1CC(F)F)C2 [Example 143, 2′-chloro-N-(5-(1-(2,2-difluoroethyl)-1H-pyrazole-5-carbonyl)-5,6-dihydro-4H-pyrrolo[3,4-d]thiazol-2-yl)-5′-methoxy-6-methyl-[4,4′-bipyridine]-3-carboxamide]
1 to 15 | COc1cnc(Cl)cc1-c1cc(C)ncc1C(=O)Nc1nc2c(s1)CN(C(=O)C1CC(OC(C)C)C1)C2 (centres unmarked) [Example 119]
1 to 15 | COc1cnc(Cl)cc1-c1cc(C)ncc1C(=O)Nc1nc2c(s1)CN(S(=O)(=O)C1CC1)C2 [Example 234]
1 to 15 | COc1cnc(Cl)cc1-c1cc(C)ncc1C(=O)Nc1nc2c(s1)CN(C(=O)c1nn(C(F)F)cc1Cl)C2 [Example 55, 2′-chloro-N-(5-(4-chloro-1-(difluoromethyl)-1H-pyrazole-3-carbonyl)-5,6-dihydro-4H-pyrrolo[3,4-d]thiazol-2-yl)-5′-methoxy-6-methyl-[4,4′-bipyridine]-3-carboxamide]
1 to 15 | COc1cnc(Cl)cc1-c1cc(C)ncc1C(=O)Nc1nc2c(s1)CN(C(=O)c1cccc(OC(F)F)n1)C2 [Example 72, 2′-chloro-N-(5-(6-(difluoromethoxy)picolinoyl)-5,6-dihydro-4H-pyrrolo[3,4-d]thiazol-2-yl)-5′-methoxy-6-methyl-[4,4′-bipyridine]-3-carboxamide]
150 to 900 | COc1ccccc1-c1cc(C)ncc1C(=O)Nc1nc2c(s1)CN(C(=O)c1cnn(C)c1)C2
1 to 15 | COc1cnc(Cl)cc1-c1cc(C)ncc1C(=O)Nc1nc2c(s1)CN(C(=O)c1cn(C)nc1C(F)(F)F)C2 [Example 61, 2′-chloro-5′-methoxy-6-methyl-N-(5-(1-methyl-3-(trifluoromethyl)-1H-pyrazole-4-carbonyl)-5,6-dihydro-4H-pyrrolo[3,4-d]thiazol-2-yl)-[4,4′-bipyridine]-3-carboxamide]
1 to 15 | COc1cnc(Cl)cc1-c1cc(C)ncc1C(=O)Nc1nc2c(s1)CN(C(=O)c1ncccc1O)C2 [Example 71, 2′-chloro-N-(5-(3-hydroxypicolinoyl)-5,6-dihydro-4H-pyrrolo[3,4-d]thiazol-2-yl)-5′-methoxy-6-methyl-[4,4′-bipyridine]-3-carboxamide]
1 to 15 | COc1cnc(Cl)cc1-c1cc(C)ncc1C(=O)Nc1nc2c(s1)CN(C(=O)c1cccnn1)C2 [Example 33, 2′-chloro-5′-methoxy-6-methyl-N-(5-(pyridazine-3-carbonyl)-5,6-dihydro-4H-pyrrolo[3,4-d]thiazol-2-yl)-[4,4′-bipyridine]-3-carboxamide]

From patent publication US20250230171A1 (MOMA Therapeutics, Inc., priority 2023, published 2025)
